Experimental data taken from patent publication US20230075856A1, “CYCLIC SULFAMIDE COMPOUNDS FOR TREATMENT OF HBV” (Assembly Biosciences, Inc., priority 2018, published 2023).
Where two headings read alike, the source gives them in different places.

System: HBV viral load production from HepAD38 cells
Experiment: Viral production from HepAD38 cells: viral load in supernatant by qPCR of the HBV core sequence
Assay type: cell-based
Details: 5 days incubation, qPCR of supernatant HBV DNA vs DMSO control, read-out: viral load lowering EC50 (Activity)
How it was run: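 HepAD38 cells seeded at 50,000/well in tetracycline-free medium with 2% FBS, treated with compounds (final top concentration 10 μM) for 5 days at 37 °C. Supernatant HBV DNA quantified by TaqMan qPCR of core sequence against HBV DNA standards, relative to DMSO controls; EC50 by four-parameter logistic fit.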

[1] = Hepatitis B virus, HePAD38, 120 h

## Cc1cn(-c2ccc(F)cc2)nc1CNC(=O)C1CC(C(=O)Nc2ccc(F)c(Cl)c2)N(C)S(=O)(=O)N1 (single isomer, unassigned) [1141-ISOMER-A, N3-(3-chloro-4-fluoro-phenyl)-N5-[[1-(4-fluorophenyl)-4-methyl-pyrazol-3-yl]methyl]-2-methyl-1,1-dioxo-1,2,6-thiadiazinane-3,5-dicarboxamide]
[1]
  EC50: < 50 nM

## CN1C(C(=O)Nc2ccc(F)c(Cl)c2)CC(C(=O)NCc2csc(Cl)n2)NS1(=O)=O (stereo not shown) [Compound 1006]
[1]
  EC50: 50 to 100 nM

## CN1C(C(=O)Nc2ccc(F)c(Cl)c2)CC(C(=O)NCc2ccccc2C(F)(F)F)NS1(=O)=O (stereo not shown) [Compound 818]
[1]
  EC50: < 50 nM

## CN1C(C(=O)Nc2ccc(F)c(Cl)c2)CC(C(=O)N[C@H](c2ccccc2)c2cnc(Cl)s2)NS1(=O)=O (single isomer, unassigned) [1066-ISOMER-C]
[1]
  EC50: < 50 nM

## CC(C)OC1CCC(NC(=O)C2CC(C(=O)Nc3ccc(F)c(Cl)c3)N(C)S(=O)(=O)N2)CC1 (single isomer, unassigned) [Compound 862-ISOMER-B, N3-(3-chloro-4-fluoro-phenyl)-N5-(4-isopropoxycyclohexyl)-2-methyl-1,1-dioxo-1,2,6-thiadiazinane-3,5-dicarboxamide]
  EC50: < 50 nM

## CN1C(C(=O)Nc2ccc(F)c(Cl)c2)CC(C(=O)NC2CCN(C(=O)OC(C)(C)C)CC2)NS1(=O)=O (single isomer, unassigned) [Compound 767-ISOMER-A, tert-butyl 4-[[5-[(3-chloro-4-fluoro-phenyl)carbamoyl]-6-methyl-1,1-dioxo-1,2,6-thiadiazinane-3-carbonyl]amino]piperidine-1-carboxylate]
[1]
  EC50: < 50 nM

## CN1C(C(=O)Nc2ccc(F)c(Cl)c2)CC(C(=O)NCc2cnc(-c3ccc(C#N)cc3F)s2)NS1(=O)=O (single isomer, unassigned) [Compound 920-ISOMER-A, N3-(3-chloro-4-fluoro-phenyl)-N5-[[2-(4-cyano-2-fluoro-phenyl)thiazol-5-yl]methyl]-2-methyl-1,1-dioxo-1,2,6-thiadiazinane-3,5-dicarboxamide]
[1]
  EC50: 100 to 10000 nM

## CN1C(C(=O)Nc2ccc(F)c(Cl)c2)CC(C(=O)NCc2cnc(C(F)(F)F)s2)NS1(=O)=O (single isomer, unassigned) [Compound 498-ISOMER-A, N3-(3-chloro-4-fluoro-phenyl)-2-methyl-1,1-dioxo-N5-[[2-(trifluoromethyl)thiazol-5-yl]methyl]-1,2,6-thiadiazinane-3,5-dicarboxamide]
[1]
  EC50: 100 to 10000 nM

## CN1C(C(=O)Nc2ccc(F)c(Cl)c2)CC(C(=O)NCc2cn(-c3ccccc3)nn2)NS1(=O)=O (stereo not shown) [Compound 1147]
[1]
  EC50: 50 to 100 nM

## COCCN1C(C(=O)Nc2ccc(F)c(Cl)c2)CC(C(=O)NC2CCN(C(=O)OC)CC2)NS1(=O)=O (stereo not shown) [Compound 896]
[1]
  EC50: 100 to 10000 nM

## CN1C(C(=O)Nc2ccc(F)c(Cl)c2)CC(C(=O)NCc2cc(-c3ccc(F)cc3)n(C)n2)NS1(=O)=O (single isomer, unassigned) [1151-ISOMER-B, N3-(3-chloro-4-fluoro-phenyl)-N5-[[5-(4-fluorophenyl)-1-methyl-pyrazol-3-yl]methyl]-2-methyl-1,1-dioxo-1,2,6-thiadiazinane-3,5-dicarboxamide]
  EC50: 100 to 10000 nM

## Cc1cn(-c2ccc(F)cc2F)nc1CNC(=O)C1CC(C(=O)Nc2ccc(F)c(Cl)c2)N(C)S(=O)(=O)N1 (single isomer, unassigned) [1144-ISOMER-B, N3-(3-chloro-4-fluoro-phenyl)-N5-[[1-(2,4-difluorophenyl)-4-methyl-pyrazol-3-yl]methyl]-2-methyl-1,1-dioxo-1,2,6-thiadiazinane-3,5-dicarboxamide]
  EC50: 100 to 10000 nM

## COC(=O)N1CCC(NC(=O)C2CC(C(=O)Nc3ccc(F)c(C#N)c3)N(C)S(=O)(=O)N2)CC1 (stereo not shown) [Compound 770]
[1]
  EC50: 50 to 100 nM

## Cc1cn(-c2ccc(F)cc2F)nc1CNC(=O)C1CC(C(=O)Nc2ccc(F)c(Cl)c2)N(C)S(=O)(=O)N1 (stereo not shown) [Compound 1144]
[1]
  EC50: < 50 nM

## CN1C(C(=O)Nc2ccc(F)c(Cl)c2)CC(C(=O)NCc2cccc(C(F)(F)F)c2)NS1(=O)=O (stereo not shown) [Compound 724]
[1]
  EC50: 50 to 100 nM

## Cc1c(CNC(=O)C2CC(C(=O)Nc3ccc(F)c(Cl)c3)N(C)S(=O)(=O)N2)cnn1C (single isomer, unassigned) [Compound 740-ISOMER-A, N3-(3-chloro-4-fluoro-phenyl)-N5-[(1,5-dimethylpyrazol-4-yl)methyl]-2-methyl-1,1-dioxo-1,2,6-thiadiazinane-3,5-dicarboxamide]
[1]
  EC50: < 50 nM

## CN1C(C(=O)Nc2ccc(F)c(Cl)c2)CC(C(=O)NCc2cnc(N)s2)NS1(=O)=O (single isomer, unassigned) [1132-ISOMER-B, N5-[(2-aminothiazol-5-yl)methyl]-N3-(3-chloro-4-fluoro-phenyl)-2-methyl-1,1-dioxo-1,2,6-thiadiazinane-3,5-dicarboxamide]
  EC50: 100 to 10000 nM

## CC(C)OC(=O)N1CCC(NC(=O)C2CC(C(=O)Nc3ccc(F)c(Cl)c3)N(C)S(=O)(=O)N2)CC1 (single isomer, unassigned) [Compound 766-ISOMER-A, isopropyl 4-[[5-[(3-chloro-4-fluoro-phenyl)carbamoyl]-6-methyl-1,1-dioxo-1,2,6-thiadiazinane-3-carbonyl]amino]piperidine-1-carboxylate]
[1]
  EC50: < 50 nM

## CN1C(C(=O)Nc2ccc(F)c(Cl)c2)C[C@@H](C(=O)N[C@H](c2ccccc2)c2cnc(-c3ccccc3)s2)NS1(=O)=O (single isomer, unassigned) [1067-ISOMER-C]
[1]
  EC50: < 50 nM

## CN1C(C(=O)Nc2ccc(F)c(Cl)c2)CC(C(=O)NCc2cnc(-c3ccccc3)s2)NS1(=O)=O (single isomer, unassigned) [Compound 691-ISOMER-B, N3-(3-chloro-4-fluoro-phenyl)-2-methyl-1,1-dioxo-N5-[(2-phenylthiazol-5-yl)methyl]-1,2,6-thiadiazinane-3,5-dicarboxamide]
  EC50: < 50 nM

## CN1C(C(=O)Nc2ccc(F)c(Cl)c2)CC(C(=O)Nc2ccc3cccnc3c2)NS1(=O)=O (stereo not shown) [Compound 725]
[1]
  EC50: 50 to 100 nM

## CCN1C(C(=O)Nc2ccc(F)c(Cl)c2)CC(C(=O)NCc2cnc(C)s2)NS1(=O)=O (stereo not shown) [Compound 888]
[1]
  EC50: 100 to 10000 nM

## Cc1nc(-c2ccccc2)sc1CNC(=O)C1CC(C(=O)Nc2ccc(F)c(Cl)c2)N(C)S(=O)(=O)N1 (stereo not shown) [Compound 914]
[1]
  EC50: < 50 nM

## Cc1nc(-c2ccccc2Cl)sc1C(NC(=O)C1CC(C(=O)Nc2ccc(F)c(Cl)c2)N(C)S(=O)(=O)N1)c1ccccc1 (stereo not shown) [Compound 1100]
[1]
  EC50: 50 to 100 nM

## CN1C(C(=O)Nc2ccc(F)c(Cl)c2)CC(C(=O)NCc2cnc(N)s2)NS1(=O)=O (single isomer, unassigned) [1132-ISOMER-A, N5-[(2-aminothiazol-5-yl)methyl]-N3-(3-chloro-4-fluoro-phenyl)-2-methyl-1,1-dioxo-1,2,6-thiadiazinane-3,5-dicarboxamide]
[1]
  EC50: 50 to 100 nM

## CN1C(C(=O)Nc2ccc(F)c(Cl)c2)CC(C(=O)NC2CCN(c3ncccn3)CC2)NS1(=O)=O (single isomer, unassigned) [Compound 855-ISOMER-B, N3-(3-chloro-4-fluoro-phenyl)-2-methyl-1,1-dioxo-N5-(1-pyrimidin-2-yl-4-piperidyl)-1,2,6-thiadiazinane-3,5-dicarboxamide]
  EC50: 100 to 10000 nM

## CN1C(C(=O)Nc2ccc(F)c(Cl)c2)CC(C(=O)NCc2cnc(-c3cccnc3)s2)NS1(=O)=O (single isomer, unassigned; isomer-b) [Compound 911-ISOMER-B, N3-(3-chloro-4-fluoro-phenyl)-2-methyl-1,1-dioxo-N5-[[2-(3-pyridyl)thiazol-5-yl]methyl]-1,2,6-thiadiazinane-3,5-dicarboxmaide]
  EC50: < 50 nM

## CCc1nc(CNC(=O)C2CC(C(=O)Nc3ccc(F)c(Cl)c3)N(C)S(=O)(=O)N2)cs1 (single isomer, unassigned) [Compound 742-ISOMER-A, N3-(3-chloro-4-fluoro-phenyl)-N5-[(2-ethylthiazol-4-yl)methyl]-2-methyl-1,1-dioxo-1,2,6-thiadiazinane-3,5-dicarboxamide]
[1]
  EC50: 100 to 10000 nM

## CN1C(C(=O)Nc2ccc(F)c(Cl)c2)CC(C(=O)NC2CCOC2)NS1(=O)=O (stereo not shown) [Compound 706]
[1]
  EC50: 100 to 10000 nM

## CC(NC(=O)C1CC(C(=O)Nc2ccc(F)c(Cl)c2)N(C)S(=O)(=O)N1)c1cnc(-c2ccccc2Cl)s1 (stereo not shown) [Compound 1019]
[1]
  EC50: < 50 nM

## CN1C(C(=O)Nc2ccc(F)c(Cl)c2)CC(C(=O)NCc2nn(-c3ccccc3)c3ccccc23)NS1(=O)=O (single isomer, unassigned) [1072-ISOMER-A, N3-(3-chloro-4-fluoro-phenyl)-2-methyl-1,1-dioxo-N5-[(1-phenylindazol-3-yl)methyl]-1,2,6-thiadiazinane-3,5-dicarboxamide]
[1]
  EC50: < 50 nM

## CN1C(C(=O)Nc2ccc(F)c(Cl)c2)CC(C(=O)NCCC2CCCO2)NS1(=O)=O (stereo not shown) [Compound 1161]
[1]
  EC50: 100 to 10000 nM

## CN1C(C(=O)Nc2ccc(F)c(Cl)c2)CC(C(=O)NCc2ccncc2)NS1(=O)=O (stereo not shown) [Compound 715]
[1]
  EC50: 100 to 10000 nM

## CN1C(C(=O)Nc2ccc(F)c(Cl)c2)CC(C(=O)NCc2ccccc2Br)NS1(=O)=O (stereo not shown) [Compound 821]
[1]
  EC50: < 50 nM

## COc1ccc(CNC(=O)C2CC(C(=O)Nc3ccc(F)c(Cl)c3)N(C)S(=O)(=O)N2)cc1 (stereo not shown) [Compound 717, N3-(3-chloro-4-fluoro-phenyl)-N5-[(4-methoxyphenyl)methyl]-2-methyl-1,1-dioxo-1,2,6-thiadiazinane-3,5-dicarboxamide]
[1]
  EC50: < 50 nM

## CC(NC(=O)C1CC(C(=O)Nc2ccc(F)c(Cl)c2)N(C)S(=O)(=O)N1)c1ccc(F)cc1 (stereo not shown) [Compound 493]
[1]
  EC50: < 50 nM

## COc1ccc(-c2cnc(CNC(=O)C3CC(C(=O)Nc4ccc(F)c(Cl)c4)N(C)S(=O)(=O)N3)s2)cc1 (single isomer, unassigned) [Compound 932-ISOMER-B, N3-(3-chloro-4-fluoro-phenyl)-N5-[[5-(4-methoxyphenyl)thiazol-2-yl]methyl]-2-methyl-1,1-dioxo-1,2,6-thiadiazinane-3,5-dicarboxamide]
  EC50: < 50 nM
